This assay addresses T1, visual cycle isomerase (Mus musculus, UniProt Q91ZQ5).
T1 construct: The recovery of 11-cis-retinal after bleaching can be used to estimate the activity of isomerase in vivo; from tissue; host or cells: eye (RPE) of living CD-1 albino male mice
T1 sequence (Q91ZQ5 1-533): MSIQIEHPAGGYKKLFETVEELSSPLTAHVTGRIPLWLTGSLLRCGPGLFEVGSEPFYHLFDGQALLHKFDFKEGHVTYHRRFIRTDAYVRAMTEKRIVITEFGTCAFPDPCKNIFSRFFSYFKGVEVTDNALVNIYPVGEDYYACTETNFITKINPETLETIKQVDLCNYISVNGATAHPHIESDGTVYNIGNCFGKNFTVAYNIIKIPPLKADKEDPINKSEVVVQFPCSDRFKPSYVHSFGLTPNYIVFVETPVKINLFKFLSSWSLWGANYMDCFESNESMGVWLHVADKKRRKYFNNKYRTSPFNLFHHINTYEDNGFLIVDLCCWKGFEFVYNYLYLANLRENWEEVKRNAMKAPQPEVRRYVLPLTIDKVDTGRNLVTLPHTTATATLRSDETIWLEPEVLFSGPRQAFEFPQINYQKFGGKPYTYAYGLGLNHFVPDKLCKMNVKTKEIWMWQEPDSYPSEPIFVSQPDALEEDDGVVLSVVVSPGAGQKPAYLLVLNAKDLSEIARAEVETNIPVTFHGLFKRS
Kind of assay: in vivo murine isomerase assay: recovery of 11-cis-retinal (oxime) after photobleaching. The method, then: FIG. 1 illustrates isomerase inhibitory activity of the compound of Example 3 (Compound 3). The animals were orally gavaged with 1 mg/kg compound, then “photo-bleached” (5000 Lux white light for 10 minutes) at 4, 24 and 48 hours after dosing, and returned to darkness to allow recovery of the 11-cis-retinal content of the eyes. Mice were sacrificed 2 hours after bleaching, eyes were enucleated, and retinoid content was analyzed by HPLC.
FIG. 2 illustrates concentration-dependent inhibition of isomerase activity by the compound of Example 19 (Compound 19). […] Five animals were included in each treatment group. The error bars correspond to standard error.
A method for determining the effect of a compound on isomerase activity may be performed in vitro as described herein and in the art (Stecher et al., J Biol Chem 274:8577-85 (1999); see also Golczak et al., Proc. Natl. Acad. Sci. USA 102:8162-67 (2005)). Retinal pigment epithelium (RPE) microsome membranes isolated from an animal (such as bovine, porcine, human, for example) may serve as the source of the isomerase. The capability of the amine derivative compounds to inhibit isomerase may also be determined by an in vivo murine isomerase assay. Brief exposure of the eye to intense light (“photobleaching” of the visual pigment or simply “bleaching”) is known to photo-isomerize almost all 11-cis-retinal in the retina. […]

For the compound `CCCC(O)(CCC)CCc1cccc(C(O)CCN)c1` (centres unmarked) [Example 19, 4-(3-(3-amino-1-hydroxypropyl)phenethyl)heptan-4-ol], the “inhibition of 11-cis retinal (oxime) recovery” value (FIG. 2A/2B, dose response) is “dose related”. For the setting “mouse, read-out: ED50 (dose of compound that gives 50% inhibition of 11-cis retinal (oxime) recovery), FIG. 2, five animals per treatment group, estimated from dose response”, the ED50 is around 0.651 mg/kg.

The values above are taken from US8450527B2, “Amine derivative compounds for treating ophthalmic diseases and disorders” (Acucela Inc., priority 2007, dated 2013).
